Assay results taken from US20220127297A1, “Novel Antibacterial 3"-Derivatives Of 4,6-Disubstituted 2,5-Dideoxystreptamine Aminoglycoside Antibiotics” (AGILeBiotics B.V., priority 2018, published 2022).
≈ marks a conversion by molar mass, not a printed value.

What was measured:
E. coli (APH(3′)IIIa) = assay: MIC 50, broth micro-dilution, E. coli expressing APH(3′)IIIa; format: cell-based, Escherichia coli; conditions: Escherichia coli, ATCC25922, ATCC25922 harboring plasmid encoding APH(3′)IIIa
Protocol: (§1) Plasmid transformation. Approximately 500 ng of the pET-9b(+) (Cat. No. 69432-3, Merck), pAT21-1 (provided by Prof. Dr. Patrice Courvalin, M.D., Pasteur Institute, France; prepared according to Trieu-Cuot et. al, Mol. Gen. Genet. 198(2), 348 (1985)), pBluescript::AAC(6′)-Ie/APH(2″)-Ia (provided by Prof. Dr. Sergei Vakulenko, M.D., University of Notre Dame, Ind., USA; prepared according to S. B. Vakulenko et. al., J. Biol. Chem. 287 (52), 43262 (2012)), pBlue_lpp_aacC3_rrnC and pSET152 (Cat. No. PVT3395, Life Science Market; prepared according to Bierman et al., Gene 116 (1), 43 (1992)) plasmids, encoding APH(3′)-Ia (SEQ ID NO:2), APH(3′)-IIIa (SEQ ID NO:3), AAC(6′)Ie-APH(2″)-Ia (SEQ ID NO:4), AAC(3)-III (SEQ ID NO:1), and AAC(3)-IV (SEQ ID NO:5) respectively, were individually incubated in a vial of competent cells for 15 min on ice. The cells were subsequently heated to 42° C. for 90 s, and cooled on ice for 1 min. After addition of 900 μL LB, the cells were incubated for 1 h at 37° C. and 200 rpm. Cells were plated on LB-agar supplemented with 50 μg/mL KanaA and incubated for 18 h at 37° C. The next day, a single colony was inoculated in 5 mL LB supplemented with 50 μg/mL and grown for 18 h at 37° C. and 200 rpm. A 200 μL sample of each culture was diluted with 200 μL of 40% v/v glycerol in water, and stored at −80° C. The plasmid was purified from the remaining culture using the Plasmid Miniprep kit. Plasmid DNA was investigated by Eurofins Genomics (Germany) to confirm the identity of the aminoglycoside resistance genes.
(§2) 3.1 Against E. coli Strains
(§3) Tested reference compounds. Amikacin sulfate (Cat. No. 01693, Chem-Impex), Gentamicin sulfate (Cat. No. G4918, Sigma Aldrich).
(§4) Microbial strains. E. coli ATCC 25922, E. coli ATCC 25922/pET-9b(+), E. coli ATCC 25922/pAT21-1, E. coli ATCC 25922/pBluescript::AAC(6′)-Ie/APH(2″)-Ia, E. coli ATCC 25922/pBlue_lpp_aacC3_rrnC, E. coli ATCC 25922/pSET152.
(§5) Culture media and equipment. BBL™ Mueller Hinton Broth 2 (Lot. BCBW1143, Cat. No. 70192, Sigma); Kanamycin A (Cat. No. A1493, AppliChem); 96-well deep well plate, 1 mL (Cat. No. 0030506.200, Eppendorf); Plate lids (Cat. No. 0030131.525, Eppendorf); 96-well plate, F-bottom (Cat. No. 781602, Brand; Incubator, Infors Multitron Pro); Laminar flow (Heraeus KS12); UV/VIS meter (Eppendorf BioPhotometer Plus); Platereader (Tecan Sunrise).
(§6) Compound preparation. Compounds were prepared in MH2 media at a concentration of 5 mM and stored at 4° C. For testing, solutions of 128 μM were prepared in MH2. Out of these working solutions, 400 μL was transferred to wells in the first column of 96-well deep well plates. Each compound was transferred in triplicate. Plates were previously filled with 200 μL of MH2 media in all wells except for the wells in the first column. After compound and antibiotic addition, the compounds were serial two-fold diluted by transferring 200 μL from the first to the second column, then from the second to the third column and so on. Finally, 200 μL was removed from the last column.
(§7) Inoculum preparation. Microorganisms used were all revived from 20% glycerol (40% v/v glycerol in water was diluted with MH2) storage at −80° C. by inoculating them in 5 mL MH2. inoculums of E. coli containing a plasmid were selected for by adding 50 μg/mL KanaA. The Inoculums were grown to an optical density (measured by UV/Vis spectroscopy) of 0.6-0.8 at 600 nm. Out of these suspensions, actual inoculums were prepared by diluting them to an optical density (OD) of 0.1 in MH2 media. From these inoculums, 200 μL was transferred to each well, resulting in a final compound concentration range of 64 μM-31.3 nM. All plates were incubated at 900 rpm and 70% rH for 18 h at 37° C.
(§8) MIC determination. After 18 h of growth, 200 μL was transferred to a 96-well F-bottom plate. The optical density was determined by a plate reader at 600 nm, with 10 s shaking before reading. Triplicate measurements were averaged, and a growth curve was plotted in Microsoft Excel. […]

E. coli ATCC25922 strain = assay: MIC 50, broth micro-dilution, wild-type Escherichia coli; format: cell-based; conditions: Escherichia coli, ATCC25922, 18 h, MH2, 18 h
Excerpt: as §2, §3, §4, §5, §6, §7
MIC determination. After 18 h of growth, 200 μL was transferred to a 96-well F-bottom plate. The optical density was determined by a plate reader at 600 nm, with 10 s shaking before reading. Triplicate measurements were averaged, and a growth curve was plotted in Microsoft Excel. The first column in which the growth reached half the value of maximum growth was determined as the MIC50 value for that particular compound.
MIC50. The MIC50 of a compound was assigned at which the bacterial growth reached half the value of maximum growth.

E. coli (APH(3′)Ia) = assay: MIC 50, broth micro-dilution, E. coli expressing APH(3′)Ia; format: cell-based, Escherichia coli; conditions: Escherichia coli, ATCC25922, ATCC25922 harboring plasmid encoding APH(3′)Ia
Protocol: as §1, §2, §3, §4, §5, §6, §7, §8

E. coli (AAC(3)III) = assay: MIC 50, broth micro-dilution, E. coli expressing AAC(3)III; format: cell-based, Escherichia coli; conditions: Escherichia coli, ATCC25922, ATCC25922 harboring plasmid encoding AAC(3)III
Excerpt: Cloning resistant enzymes. An Escherichia coli codon optimized gene encoding AAC(3)-III (GenBank acc.nr. X55652.1; SEQ ID NO:1), including a promoter and terminator sequence, was synthesized by Integrated DNA Technologies, Belgium. The synthesized gene and pBluescript II KS(+) plasmid were digested using the restriction enzymes SacI and SalI, and purified from a 1% TBE-agarose gel using the illustra Gel Band purification kit. The purified linear plasmid and T4 DNA ligase were used to ligate aac(3)-III under control of the constitutive lipoprotein Ipp promoter and ribosomal RNA rrnC terminator, resulting in pBlue_Ipp_aacC3_rrnC.
as §1, §2, §3, §4, §5, §6
Inoculum preparation. Microorganisms used were all revived from 20% glycerol (40% v/v glycerol in water was diluted with MH2) storage at −80° C. by inoculating them in 5 mL MH2. inoculums of E. coli containing a plasmid were selected for by adding 50 μg/mL KanaA.

E. coli (AAC(3)IV) = assay: MIC 50, broth micro-dilution, E. coli expressing AAC(3)IV; format: cell-based, Escherichia coli; conditions: Escherichia coli, ATCC25922, ATCC25922 harboring plasmid encoding AAC(3)IV
Protocol: as §1, §2, §3, §4, §5, §6, §7, §8

[1] = system: E. coli (AAC(6′)Ie-APH(2″)Ia); assay: MIC 50, broth micro-dilution, E. coli expressing AAC(6′)Ie-APH(2″)Ia; format: cell-based, Escherichia coli; conditions: Escherichia coli, ATCC25922, ATCC25922 harboring plasmid encoding AAC(6′)Ie-APH(2″)Ia
Protocol: as §1, §2, §3, §4, §5, §6, §7, §8

SMILES: N=C(N)NC1[C@@H](O)C(OC2[C@@H](F)[C@H](O[C@H]3OC(CN)[C@@H](O)CC3N)C(N)C[C@H]2NC(=O)[C@@H](F)CCN)O[C@H](CO)[C@H]1O (stereo partly drawn) [ABX5034, Tobra-(AFB)-F-Gua]
- MIC50 (E. coli (APH(3′)IIIa)): 0.5 to 1 µM (≈ 0.307 to 0.615 µg/mL)
- MIC50 (E. coli ATCC25922 strain): 1 µM (≈ 0.615 µg/mL)
- MIC50 (E. coli (APH(3′)Ia)): 1 µM (≈ 0.615 µg/mL)
- MIC50 (E. coli (AAC(3)III)): 0.5 to 1 µM (≈ 0.307 to 0.615 µg/mL)
- MIC50 (E. coli (AAC(3)IV)): 2 to 4 µM (≈ 1.23 to 2.46 µg/mL)
- MIC50 [1]: 1 µM (≈ 0.615 µg/mL)

SMILES: N=C(NC[C@H]1CCCNC1)NC1[C@@H](O)C(OC2[C@@H](F)[C@H](O[C@H]3OC(CN)[C@@H](O)CC3N)C(N)C[C@H]2NC(=O)[C@@H](O)CCN)O[C@H](CO)[C@H]1O (stereo partly drawn) [ABX5044, Tobra-AHB-F-Gua (S) piperidin-3-yl methyl]
- MIC50 (E. coli (APH(3′)IIIa)): 0.5 µM (≈ 0.355 µg/mL)
- MIC50 (E. coli ATCC25922 strain): 0.5 µM (≈ 0.355 µg/mL)
- MIC50 (E. coli (APH(3′)Ia)): 0.5 to 1 µM (≈ 0.355 to 0.71 µg/mL)
- MIC50 (E. coli (AAC(3)III)): 0.5 µM (≈ 0.355 µg/mL)
- MIC50 (E. coli (AAC(3)IV)): 2 µM (≈ 1.42 µg/mL)
- MIC50 [1]: 0.5 µM (≈ 0.355 µg/mL)
